The NIST ThermoML archive (doi:10.1016/j.jct.2012.11.004)

Test: mn = molality of the nth substance listed, in mol/kg
Settings: 101 kPa, Liquid; for mass density: Vibrating tube method; for speed of sound: Pulse-echo method

O=S(=O)([O-])C(F)(F)F.[Na+] [sodium trifluoromethanesulfonate] + CC(=O)N(C)C
Settings	mass density, 283.15 K [kg/m3]	mass density, 293.15 K [kg/m3]	mass density, 298.15 K [kg/m3]	mass density, 303.15 K [kg/m3]	mass density, 313.15 K [kg/m3]	mass density, 323.15 K [kg/m3]	mass density, 333.15 K [kg/m3]	speed of sound, 298.15 K [m/s]
m1 = 0.03102	953.06	943.85	939.25	934.64	925.39	916.13	906.83	–
m1 = 0.04251	954.18	944.96	940.36	935.76	926.52	917.26	907.96	–
m1 = 0.05604	955.5	946.28	941.68	937.08	927.84	918.59	909.29	1456
m1 = 0.07266	957.11	947.9	943.3	938.69	929.46	920.21	910.92	1455.8
m1 = 0.08844	958.64	949.43	944.83	940.23	931	921.75	912.46	1455.7
m1 = 0.1113	960.86	951.66	947.06	942.45	933.22	923.98	914.7	1455.5
m1 = 0.1446	964.1	954.89	950.29	945.68	936.46	927.21	917.94	1455.2
m1 = 0.174	966.97	957.75	953.15	948.54	939.35	930.09	920.85	1455
m1 = 0.2018	969.69	960.49	955.89	951.28	942.06	932.83	923.57	1454.7
m1 = 0.2378	973.2	964	959.39	954.79	945.58	936.36	927.11	1454.3
m1 = 0.2675	976.18	966.97	962.37	957.77	948.55	939.32	930.07	1453.9

O=S(=O)([O-])C(F)(F)F.O=S(=O)([O-])C(F)(F)F.O=S(=O)([O-])C(F)(F)F.[La+3] [lanthanum(III) trifluoromethanesulfonate] + CC(=O)N(C)C
Settings	mass density, 283.15 K [kg/m3]	mass density, 293.15 K [kg/m3]	mass density, 298.15 K [kg/m3]	mass density, 303.15 K [kg/m3]	mass density, 313.15 K [kg/m3]	mass density, 323.15 K [kg/m3]	mass density, 333.15 K [kg/m3]	speed of sound, 298.15 K [m/s]
m1 = 0.02085	958.67	949.47	944.86	940.26	931.01	921.74	912.42	–
m1 = 0.02801	961.64	952.45	947.84	943.23	933.99	924.71	915.39	–
m1 = 0.03761	965.63	956.43	951.81	947.21	937.97	928.7	919.38	–
m1 = 0.04797	969.94	960.74	956.14	951.53	942.29	933.02	923.71	–
m1 = 0.05797	974.13	964.94	960.34	955.73	946.49	937.22	927.91	–
m1 = 0.07244	980.27	971.08	966.48	961.88	952.67	943.36	934	1455.9
m1 = 0.09378	989.43	980.24	975.64	971.03	961.79	952.5	943.16	–
m1 = 0.1127	997.64	988.45	983.85	979.24	969.99	960.7	951.36	–
m1 = 0.1302	1005.34	996.15	991.55	986.95	977.69	968.39	959.05	–
m1 = 0.1523	1015.25	1006.06	1001.46	996.85	987.59	978.29	968.93	–
m1 = 0.1712	1023.81	1014.62	1010.03	1005.42	996.16	986.84	977.5	–
